Test results taken from patent publication US7351700B2, “Aminomethylpyrimidines as allosteric enhancers of the GABAB receptors” (Hoffmann-La Roche Inc., priority 2004, dated 2008).

Tests used:
[1] = rats; cited from earlier work
[2] = elevated plus maze (rat), elevated zero maze (mice and rats), stress-induced hyperthermia (mice); cited from earlier work
[3] = PO, cited from earlier work
[4] = passive avoidance behavioral test in mice and rats; cited from earlier work
[5] = biological target: T1, human GABABR1aR2a (Homo sapiens, UniProt O75899+Q9UBS5); experiment: Intracellular Ca2+ mobilization assay (FLIPR) in CHO-GABABR1aR2a-Gα16 cell; format: cell-based; settings: for GABA shift Log [EC50(GABA + 10 μM cp)/EC50(GABA alone)]: 10 μM enhancer applied 15 min before GABA (0.0003-30 μM); for Emax: enhancer 0.001-30 μM in presence of 10 nM GABA (EC10), normalized to 10 μM GABA = 100%, 10 nM GABA = 0%, read-out: Emax (%) at 10 nM GABA alone = 0% 10 μM GABA alone = 100%; for EC50: enhancer concentration-response in presence of 10 nM GABA
T1 construct: expressed in transfected cells
Protocol: Intracellular Ca^2+ Mobilization Assay
The Chinese Hamster Ovary (CHO) cells stably expressing human GABABR1aR^2a and Gα16 were seeded at 5×10^4 cells/well in the poly-D-lysine treated, 96-well, black/clear-bottomed plates (BD Biosciences, Palo Alto, Calif.). 24 h later, the cells were loaded for 90 min at 37° C. with 4 μM Flou-4 acetoxymethyl ester (Catalog No. F-14202, Molecular Probes, Eugene, Oreg.) in loading buffer (1×HBSS, 20 mM HEPES, 2.5 mM Probenecid). Hanks' Balanced Salt Solution (HBSS) (10×) (catalog No. 14065-049) and HEPES (1M) (catalog No. 15630-056) were purchased from Invitrogen, Carlsbad, Calif. Probenecid (250 mM) (catalog No. P8761) was from Sigma, Buchs, Switzerland. The cells were washed five times with loading buffer to remove excess dye and intracellular calcium mobilization, [Ca^2+ ]i were measured using a Fluorometric Imaging Plate Reader (FLIPR, Molecular Devices, Menlo Park, Calif.) as described previously (Porter et al., Br. J. Pharmacol., 128, 13-20, 1999). The enhancers were applied 15 min before the application of the GABA. For GABA shift assay, concentration-response curves of GABA (0.0003-30 μM) were determined in the absence and presence of 10 μM enhancer. The GABA-shift is defined as Log [EC50 (GABA+10 μM enhancer)/EC50 (GABA alone)]. The % maximum enhancing effect (% Emax) potency (EC50 value) of each enhancer was determined from concentration-response curve of the enhancer (0.001-30 μM) in the presence of 10 nM (GABA) (EC10). Responses were measured as peak increase in fluorescence minus basal, normalized to the maximal stimulatory effect induced by 10 μM GABA alone (considered 100%) and 10 nM GABA alone (considered 0%). The data were fitted with the equation Y=100+(Max −100)/(1+(EC50/[drug])^n) where Max is the maximum effect, EC50 the concentration eliciting a half-maximum effect and n the Hill slope.

T1 sequence (Q9UBS5 15-961 limits assumed): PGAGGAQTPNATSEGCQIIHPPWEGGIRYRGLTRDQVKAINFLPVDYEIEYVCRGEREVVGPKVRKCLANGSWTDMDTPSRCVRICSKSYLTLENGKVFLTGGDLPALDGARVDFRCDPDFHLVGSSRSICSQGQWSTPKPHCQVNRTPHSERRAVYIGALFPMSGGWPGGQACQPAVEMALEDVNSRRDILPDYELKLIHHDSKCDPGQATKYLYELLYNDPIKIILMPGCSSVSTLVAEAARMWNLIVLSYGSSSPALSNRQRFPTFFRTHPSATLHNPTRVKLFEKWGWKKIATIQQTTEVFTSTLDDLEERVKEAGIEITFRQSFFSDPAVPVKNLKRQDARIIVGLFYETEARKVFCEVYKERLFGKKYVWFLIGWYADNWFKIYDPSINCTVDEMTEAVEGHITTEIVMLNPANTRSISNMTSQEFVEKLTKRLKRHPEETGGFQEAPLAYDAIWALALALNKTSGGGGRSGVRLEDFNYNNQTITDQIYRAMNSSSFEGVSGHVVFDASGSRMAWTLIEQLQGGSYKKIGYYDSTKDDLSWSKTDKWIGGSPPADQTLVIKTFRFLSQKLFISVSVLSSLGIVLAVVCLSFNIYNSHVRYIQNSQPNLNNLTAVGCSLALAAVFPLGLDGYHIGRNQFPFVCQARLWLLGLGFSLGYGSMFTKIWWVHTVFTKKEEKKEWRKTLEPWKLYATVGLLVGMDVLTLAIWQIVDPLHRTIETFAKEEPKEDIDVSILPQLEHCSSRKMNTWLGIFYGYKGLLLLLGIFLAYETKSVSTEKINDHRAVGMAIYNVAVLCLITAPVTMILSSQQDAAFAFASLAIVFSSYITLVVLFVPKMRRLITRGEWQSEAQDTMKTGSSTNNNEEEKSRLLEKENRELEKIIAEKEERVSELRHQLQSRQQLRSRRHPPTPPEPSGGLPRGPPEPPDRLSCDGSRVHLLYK
T1 sequence (O75899 42-941): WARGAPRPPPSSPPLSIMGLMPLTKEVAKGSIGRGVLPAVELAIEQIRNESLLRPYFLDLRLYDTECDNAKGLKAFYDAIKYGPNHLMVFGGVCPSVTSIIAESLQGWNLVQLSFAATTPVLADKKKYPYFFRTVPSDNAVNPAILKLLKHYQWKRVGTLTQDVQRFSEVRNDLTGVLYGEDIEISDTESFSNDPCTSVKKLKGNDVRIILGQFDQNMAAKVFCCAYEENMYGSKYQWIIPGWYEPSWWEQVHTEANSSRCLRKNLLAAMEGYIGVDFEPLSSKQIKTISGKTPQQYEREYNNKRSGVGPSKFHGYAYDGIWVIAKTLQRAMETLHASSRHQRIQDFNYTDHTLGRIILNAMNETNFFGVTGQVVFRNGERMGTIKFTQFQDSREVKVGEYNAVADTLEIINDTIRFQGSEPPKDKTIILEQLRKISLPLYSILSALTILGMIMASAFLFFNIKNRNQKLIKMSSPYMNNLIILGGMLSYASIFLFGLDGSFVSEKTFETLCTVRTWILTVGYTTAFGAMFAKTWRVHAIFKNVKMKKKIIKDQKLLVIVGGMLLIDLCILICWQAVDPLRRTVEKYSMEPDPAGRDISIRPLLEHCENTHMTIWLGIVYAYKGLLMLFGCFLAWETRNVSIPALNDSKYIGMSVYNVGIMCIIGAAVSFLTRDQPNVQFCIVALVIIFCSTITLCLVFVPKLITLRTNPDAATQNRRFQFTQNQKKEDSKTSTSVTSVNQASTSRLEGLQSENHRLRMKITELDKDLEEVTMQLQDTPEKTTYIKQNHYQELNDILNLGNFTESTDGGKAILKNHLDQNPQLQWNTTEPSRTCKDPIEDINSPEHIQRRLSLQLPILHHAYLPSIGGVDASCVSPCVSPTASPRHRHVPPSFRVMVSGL

| SMILES | GABA shift Log [EC50(GABA + 10 μM cp)/EC50(GABA alone)] [5] | Emax [5] [%] | EC50 [5] [µM] | also measured |
| --- | --- | --- | --- | --- |
| CSc1nc(NC2CCCC2)c([N+](=O)[O-])c(NC2CCCC2)n1 [GS39783, N,N_-dicyclopentyl-2-methylsulfanyl-5-nitro-pyrimidine-4,6-diamine] | – | – | – | decreasing cocaine self-administration [1]: effective; anxiolytic-like effects [2]: exhibited anxiolytic-like effects; effect on spontaneous locomotor activity, rotarod, body temperature and traction test ([3]; 0.1-200 mg/kg): no effect; effect on cognition performance [4]: did not have any effect |
| CCCCCCSc1nc(CN2CCOCC2)cc(C(F)(F)F)n1 [Example 39, 4-(2-Hexylsulfanyl-6-trifluoromethyl-pyrimidin-4-ylmethyl)-morpholine] | −0.48 | 62 | 6.4 | – |
| CCCCCCSc1nc(C)cc(CN2CCOCC2)n1 [Example 1, 4-(2-Hexylsulfanyl-6-methyl-pyrimidin-4-ylmethyl)-morpholine] | −0.75 | 46 | 2.2 | – |
| CCCCCCSc1nc(C)cc(C(C)N2CCOCC2)n1 (stereo not drawn) [Example 43, 4-[1-(2-Hexylsulfanyl-6-methyl-pyrimidin-4-yl)-ethyl]-morpholine] | −0.70 | 49 | 4.4 | – |
| CCCCCCSc1nc(C)cc(CN2C[C@@H]3C[C@@H](C2)c2cccc(=O)n2C3)n1 [Example 35, (1S,5S)-3-(2-Hexylsulfanyl-6-methyl-pyrimidin-4-ylmethyl)-1,2,3,4,5,6-hexahydro-1,5-methano-pyrido [1,2-a][1,5]diazocin-8-one] | −0.92 | 62 | 1.8 | – |
| NCC(CC(=O)O)c1ccc(Cl)cc1 (stereo not drawn) [Baclofen, β-chlorophenyl GABA] | – | – | – | side effects (spontaneous locomotor activity, rotarod, body temperature, traction test) ([3]; 2.5-15 mg/kg): showed these side effects |
| CCCCCCSc1nc(C)cc(CN2CCCCC2C)n1 (stereo not drawn) [Example 31, 2-Hexylsulfanyl-4-methyl-6-(2-methyl-piperidin-1-ylmethyl)-pyrimidine] | −0.69 | 60 | 9.6 | – |
| CCCCCCSc1nc(CC)cc(CN2CCOCC2)n1 [Example 41, 4-(2-Hexylsulfanyl-6-ethyl-pyrimidin-4-ylmethyl)-morpholine] | −0.86 | 60 | 4.1 | – |
| CCCCCCSc1nc(C)cc(CN2C(C)CCCC2C)n1 (stereo not drawn) [Example 37, 4-(2,6-Dimethyl-piperidin-1-ylmethyl)-2-hexylsulfanyl-6-methyl-pyrimidine] | −0.76 | 74.2 | 8.2 | – |
| Cc1cc(CN2CCOCC2)nc(SCc2ccc(C(C)(C)C)cc2)n1 [Example 11, 4-[2-(4-tert-Butyl-benzylsulfanyl)-6-methyl-pyrimidin-4-ylmethyl]-morpholine] | −0.60 | 41 | 4.2 | – |
| CCCCCCSc1nc(C)cc(CN2[C@H](C)CCC[C@@H]2C)n1 [Example 38, 4-(cis-2,6-Dimethyl-piperidin-1-ylmethyl)-2-hexylsulfanyl-6-methyl-pyrimidine] | −0.71 | 61 | 6.3 | – |
| CCCCCSc1nc(C)cc(CN2CCOCC2)n1 [Example 2, 4-(6-Methyl-2-pentylsulfanyl-pyrimidin-4-ylmethyl)-morpholine] | −0.55 | 52 | 1.7 | – |
| CC(C)(CO)Cc1cc(C(C)(C)C)c(O)c(C(C)(C)C)c1 [CGP7930, 2,6-di-tert-butyl-4-(3-hydroxy-2,2-dimethyl-propyl)-phenol] | – | – | – | decreasing cocaine self-administration [1]: effective |
| CCCCCCSc1nc(C)cc(CN2CCCC2)n1 [Example 16, 2-Hexylsulfanyl-4-methyl-6-pyrrolidin-1-ylmethyl-pyrimidine] | −0.50 | 48 | 8.5 | – |
